Molecules are shown by their SMILES. Calls of active or inactive are those of the source. Rule as the data show it, for most assays here: actives have a measured Kd and inactives only a lower limit. Where only a bound is given, the exact number is not on record here.

For assay [1], the target named is Mitogen-activated protein kinase 9 (Homo sapiens, UniProt P45984).
In assay [2] the target is T1, Serine/threonine-protein kinase D2 (Homo sapiens, UniProt Q9BZL6).
T1 sequence (Q9BZL6 whole entry): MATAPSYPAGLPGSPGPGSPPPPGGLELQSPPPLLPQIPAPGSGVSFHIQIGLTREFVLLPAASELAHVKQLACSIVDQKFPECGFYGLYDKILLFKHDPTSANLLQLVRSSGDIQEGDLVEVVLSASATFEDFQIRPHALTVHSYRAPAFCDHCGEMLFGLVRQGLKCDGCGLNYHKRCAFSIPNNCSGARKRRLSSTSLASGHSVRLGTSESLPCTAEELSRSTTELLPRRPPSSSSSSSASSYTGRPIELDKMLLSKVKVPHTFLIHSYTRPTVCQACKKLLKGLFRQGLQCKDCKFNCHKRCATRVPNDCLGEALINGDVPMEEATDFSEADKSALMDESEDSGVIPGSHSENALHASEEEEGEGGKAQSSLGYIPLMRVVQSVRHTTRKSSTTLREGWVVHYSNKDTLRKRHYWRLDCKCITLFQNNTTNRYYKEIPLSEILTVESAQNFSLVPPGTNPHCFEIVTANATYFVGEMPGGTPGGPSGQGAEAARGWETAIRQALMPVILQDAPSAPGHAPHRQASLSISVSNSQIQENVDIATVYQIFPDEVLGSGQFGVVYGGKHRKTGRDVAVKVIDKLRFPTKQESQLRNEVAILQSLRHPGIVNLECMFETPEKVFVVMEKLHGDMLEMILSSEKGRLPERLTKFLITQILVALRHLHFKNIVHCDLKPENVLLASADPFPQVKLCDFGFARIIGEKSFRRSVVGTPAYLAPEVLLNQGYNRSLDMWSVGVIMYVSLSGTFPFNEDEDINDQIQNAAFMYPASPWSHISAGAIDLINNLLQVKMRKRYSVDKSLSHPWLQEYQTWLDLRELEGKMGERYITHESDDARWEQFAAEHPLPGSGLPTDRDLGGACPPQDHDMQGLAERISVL

The target of a further assay is T2, Septin-9 (Homo sapiens, UniProt Q9UHD8).
T2 sequence (Q9UHD8 whole entry): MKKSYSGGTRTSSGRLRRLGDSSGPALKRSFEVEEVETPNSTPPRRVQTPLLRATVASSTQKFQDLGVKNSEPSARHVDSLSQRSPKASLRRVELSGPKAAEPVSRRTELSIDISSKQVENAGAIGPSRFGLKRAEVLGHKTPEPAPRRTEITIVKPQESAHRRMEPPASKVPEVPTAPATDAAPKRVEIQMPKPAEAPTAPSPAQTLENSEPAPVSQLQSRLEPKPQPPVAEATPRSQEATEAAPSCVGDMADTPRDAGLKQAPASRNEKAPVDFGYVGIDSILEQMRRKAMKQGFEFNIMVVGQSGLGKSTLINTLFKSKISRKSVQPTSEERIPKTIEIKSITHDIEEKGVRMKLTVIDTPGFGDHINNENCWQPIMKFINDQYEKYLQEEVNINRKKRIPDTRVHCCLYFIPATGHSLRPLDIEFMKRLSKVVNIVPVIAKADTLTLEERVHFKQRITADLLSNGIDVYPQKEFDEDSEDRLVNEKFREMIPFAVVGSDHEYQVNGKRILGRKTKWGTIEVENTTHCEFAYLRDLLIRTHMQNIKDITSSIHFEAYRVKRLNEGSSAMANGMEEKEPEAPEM

Assay [3] addresses T3, Non-receptor tyrosine-protein kinase TNK1 (Homo sapiens, UniProt Q13470).
T3 sequence (Q13470 whole entry): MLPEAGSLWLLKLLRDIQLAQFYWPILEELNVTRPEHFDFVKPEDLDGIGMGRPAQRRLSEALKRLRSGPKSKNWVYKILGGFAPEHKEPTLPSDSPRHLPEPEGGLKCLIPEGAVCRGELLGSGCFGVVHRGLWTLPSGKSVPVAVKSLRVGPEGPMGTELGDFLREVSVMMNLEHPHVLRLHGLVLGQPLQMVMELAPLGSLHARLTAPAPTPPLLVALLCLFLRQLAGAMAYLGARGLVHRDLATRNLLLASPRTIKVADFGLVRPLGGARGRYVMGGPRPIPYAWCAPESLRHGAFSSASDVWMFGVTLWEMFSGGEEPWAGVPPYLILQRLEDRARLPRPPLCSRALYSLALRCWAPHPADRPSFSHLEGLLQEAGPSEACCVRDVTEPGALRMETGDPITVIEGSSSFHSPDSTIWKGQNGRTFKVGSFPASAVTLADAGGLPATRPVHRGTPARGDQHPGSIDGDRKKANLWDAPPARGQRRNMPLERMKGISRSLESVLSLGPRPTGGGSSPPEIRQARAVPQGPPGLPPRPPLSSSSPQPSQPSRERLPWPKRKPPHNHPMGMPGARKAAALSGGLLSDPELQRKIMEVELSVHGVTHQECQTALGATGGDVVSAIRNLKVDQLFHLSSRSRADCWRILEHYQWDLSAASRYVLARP

For another assay, the target named is Activated CDC42 kinase 1 (Homo sapiens, UniProt Q07912).
Chain of Activated CDC42 kinase 1 (Q07912 whole entry): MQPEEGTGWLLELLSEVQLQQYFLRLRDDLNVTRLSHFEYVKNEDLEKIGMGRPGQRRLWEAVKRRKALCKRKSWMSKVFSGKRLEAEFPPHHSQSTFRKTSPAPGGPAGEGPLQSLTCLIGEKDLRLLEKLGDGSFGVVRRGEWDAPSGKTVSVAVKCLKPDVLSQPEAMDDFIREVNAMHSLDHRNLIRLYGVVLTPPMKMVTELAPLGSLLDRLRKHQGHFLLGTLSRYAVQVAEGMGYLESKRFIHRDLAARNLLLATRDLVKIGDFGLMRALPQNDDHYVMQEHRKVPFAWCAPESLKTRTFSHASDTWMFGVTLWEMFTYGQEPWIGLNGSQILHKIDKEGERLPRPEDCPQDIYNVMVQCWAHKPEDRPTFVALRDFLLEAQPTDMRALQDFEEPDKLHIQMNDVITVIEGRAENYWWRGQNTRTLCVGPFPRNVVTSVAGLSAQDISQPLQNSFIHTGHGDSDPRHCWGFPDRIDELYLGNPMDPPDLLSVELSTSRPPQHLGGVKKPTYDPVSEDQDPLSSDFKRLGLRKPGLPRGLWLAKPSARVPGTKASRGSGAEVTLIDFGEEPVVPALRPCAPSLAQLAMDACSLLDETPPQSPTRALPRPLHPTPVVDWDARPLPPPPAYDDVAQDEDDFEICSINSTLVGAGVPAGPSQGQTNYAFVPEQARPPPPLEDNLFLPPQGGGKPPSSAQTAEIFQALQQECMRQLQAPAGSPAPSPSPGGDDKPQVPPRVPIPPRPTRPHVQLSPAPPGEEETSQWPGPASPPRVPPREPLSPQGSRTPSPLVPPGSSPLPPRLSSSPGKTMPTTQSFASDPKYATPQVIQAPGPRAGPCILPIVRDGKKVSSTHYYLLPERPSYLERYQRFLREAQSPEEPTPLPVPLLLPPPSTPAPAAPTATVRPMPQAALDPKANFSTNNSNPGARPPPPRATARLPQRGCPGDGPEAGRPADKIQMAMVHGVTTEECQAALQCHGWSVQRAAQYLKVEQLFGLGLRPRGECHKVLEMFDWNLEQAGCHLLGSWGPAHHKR
Also: in the data inactive means no Kd found up to 30 µM.

Chain of Mitogen-activated protein kinase 9 (P45984 whole entry): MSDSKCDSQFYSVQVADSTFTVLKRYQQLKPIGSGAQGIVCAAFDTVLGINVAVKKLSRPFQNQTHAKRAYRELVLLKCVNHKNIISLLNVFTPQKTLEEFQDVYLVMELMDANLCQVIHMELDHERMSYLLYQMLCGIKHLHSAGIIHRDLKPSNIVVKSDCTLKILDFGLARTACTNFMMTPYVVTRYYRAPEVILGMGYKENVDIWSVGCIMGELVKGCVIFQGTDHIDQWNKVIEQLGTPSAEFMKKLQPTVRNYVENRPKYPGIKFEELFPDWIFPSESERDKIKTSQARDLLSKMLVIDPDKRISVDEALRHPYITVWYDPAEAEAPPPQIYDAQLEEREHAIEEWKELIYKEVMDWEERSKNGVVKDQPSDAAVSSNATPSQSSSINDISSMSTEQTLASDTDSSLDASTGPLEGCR

Turning to `COc1cc(N2CCC(N3CCN(C)CC3)CC2)ccc1Nc1ncnc(Nc2ccccc2S(=O)(=O)C(C)C)n1` [ASP-3026], the Kd was > 30 µM (inactive) in assay [1]; 2.67 µM (active) in assay [2]; > 30 µM (inactive) at Septin-9; 0.033 µM (active) in assay [3]; 0.005 µM (active) on Activated CDC42 kinase 1.

`CNC(=O)c1ccc(-c2cnc3ncc(Cc4ccc5ncccc5c4)n3n2)cc1F` [CAPMATINIB]: the Kd (in assay [1]; in assay [2]; on Septin-9; in assay [3]; at Activated CDC42 kinase 1) was > 30 µM (inactive) each time.

`C[C@@H](Nc1cc(F)cc(F)c1)c1cc(C(=O)N(C)C)cc2c(=O)cc(N3CCOCC3)oc12` [AZD-8186]: the Kd (in assay [1]; in assay [2]; at Septin-9; in assay [3]; on Activated CDC42 kinase 1) was > 30 µM (inactive) each time.

For `C[C@@H](c1ccc2nccn2c1)n1nnc2ncc(-c3cnn(C)c3)nc21` [SAVOLITINIB], the Kd (in assay [1]; in assay [2]; at Septin-9; in assay [3]; at Activated CDC42 kinase 1) was > 30 µM (inactive) in each case.

Take `CN1CCC(COc2cnc(-c3cccc(Cn4nc(-c5cccc(C#N)c5)ccc4=O)c3)nc2)CC1` [TEPOTINIB]: the Kd (in assay [1]; in assay [2]; at Septin-9; in assay [3]; on Activated CDC42 kinase 1) was > 30 µM (inactive) in each case.

With `CNC(=O)c1cc(Oc2ccc(NC(=O)Nc3ccc(Cl)c(C(F)(F)F)c3)c(F)c2)ccn1` [REGORAFENIB], the Kd (in assay [1]; in assay [2]; on Septin-9; in assay [3]; at Activated CDC42 kinase 1) was > 30 µM (inactive) in each case.

As to `COc1cc2nccc(Oc3ccc(NC(=O)Nc4cc(C)on4)c(Cl)c3)c2cc1OC` [TIVOZANIB], the Kd (in assay [1]; in assay [2]; on Septin-9; in assay [3]; at Activated CDC42 kinase 1) was > 30 µM (inactive) each time.

For the compound `CCCS(=O)(=O)Nc1ccc(F)c(C(=O)c2c[nH]c3ncc(-c4ccc(Cl)cc4)cc23)c1F` [VEMURAFENIB], the Kd (in assay [1]; in assay [2]; on Septin-9; in assay [3]; at Activated CDC42 kinase 1) was > 30 µM (inactive) in each case.

On to `N[C@@H]1CCCN(c2c(/C=C3\SC(=O)NC3=O)cccc2-c2ccccc2)C1`, for which the Kd (in assay [1]; in assay [2]; on Septin-9; in assay [3]; on Activated CDC42 kinase 1) was > 30 µM (inactive) in each case.

As to `O=C(O)[C@]1(Cc2cccc(Nc3nccs3)n2)CC[C@@H](Oc2cccc(Cl)c2F)CC1` [MK-5108], the Kd in assay [1] was > 30 µM (inactive); in assay [2], > 30 µM (inactive); at Septin-9, > 30 µM (inactive); in assay [3], 0.006 µM (active); on Activated CDC42 kinase 1, 0.473 µM (active).

Consider `COc1cc(OC)c(/C=C/S(=O)(=O)Cc2ccc(OC)c(NCC(=O)O)c2)c(OC)c1` [RIGOSERTIB], for which the Kd (in assay [1]; in assay [2]; at Septin-9; in assay [3]; at Activated CDC42 kinase 1) was > 30 µM (inactive) throughout.

`CC[C@@H]1C(=O)N(C)c2cnc(Nc3ccc(C(=O)N[C@H]4CC[C@H](N5CCN(CC6CC6)CC5)CC4)cc3OC)nc2N1C(C)C` [VOLASERTIB]: the Kd (in assay [1]; in assay [2]; on Septin-9; in assay [3]; at Activated CDC42 kinase 1) was > 30 µM (inactive) throughout.

For the compound `Cc1cc(-c2cc(O)ccc2Cl)cc2nnc(Nc3ccc(OCCN4CCCC4)cc3)nc12`, the Kd in assay [1] is > 30 µM (inactive); in assay [2], 0.003 µM (active); on Septin-9, > 30 µM (inactive); in assay [3], > 30 µM (inactive); at Activated CDC42 kinase 1 it was > 30 µM (inactive).

Turning to `CCn1c(=O)c(-c2cc[nH]n2)cc2c(C)nc(N)nc21` [VOXTALISIB], the Kd (in assay [1]; in assay [2]; at Septin-9; in assay [3]; at Activated CDC42 kinase 1) was > 30 µM (inactive) in each case.

Turning to `Cn1ncc(Cl)c1-c1cc(C(=O)N[C@H](CN)Cc2cccc(F)c2)sc1Cl` [AFURESERTIB], the Kd was > 30 µM (inactive) in assay [1]; 3.91 µM (active) in assay [2]; > 30 µM (inactive) at Septin-9; > 30 µM (inactive) in assay [3]; > 30 µM (inactive) on Activated CDC42 kinase 1.

As to `Cc1cc2c(F)c(Oc3ncnn4cc(OC[C@@H](C)OC(=O)[C@H](C)N)c(C)c34)ccc2[nH]1` [BRIVANIB ALANINATE], the Kd (in assay [1]; in assay [2]; at Septin-9; in assay [3]; at Activated CDC42 kinase 1) was > 30 µM (inactive) in each case.

For the compound `CN1CCC(CNc2ccc3ncc(-c4cccc(OC(F)(F)F)c4)n3n2)CC1` [SGI-1776], the Kd (in assay [1]; in assay [2]; on Septin-9; in assay [3]; on Activated CDC42 kinase 1) was > 30 µM (inactive) throughout.

For the compound `CC[C@H](Nc1ncnc2[nH]cnc12)c1nc2cccc(F)c2c(=O)n1-c1ccccc1` [IDELALISIB], the Kd (in assay [1]; in assay [2]; on Septin-9; in assay [3]; on Activated CDC42 kinase 1) was > 30 µM (inactive) each time.

As for `COC(=O)N[C@@H](C)CNc1nccc(-c2cn(C(C)C)nc2-c2cc(Cl)cc(NS(C)(=O)=O)c2F)n1` [ENCORAFENIB], the Kd is 0.915 µM (active) in assay [1]; > 30 µM (inactive) in assay [2]; > 30 µM (inactive) at Septin-9; > 30 µM (inactive) in assay [3]; > 30 µM (inactive) at Activated CDC42 kinase 1.

For `O=c1sn(-c2cccc3ccccc23)c(=O)n1Cc1ccccc1` [TIDEGLUSIB], the Kd (in assay [1]; in assay [2]; at Septin-9; in assay [3]; on Activated CDC42 kinase 1) was > 30 µM (inactive) in each case.

Regarding `O=C(c1ccc(F)c(F)c1Nc1ccc(I)cc1F)N1CC(O)([C@@H]2CCCCN2)C1` [COBIMETINIB], the Kd (in assay [1]; in assay [2]; at Septin-9; in assay [3]; at Activated CDC42 kinase 1) was > 30 µM (inactive) throughout.

(Values after ChEMBL document CHEMBL3991601, “The target landscape of clinical kinase drugs” (Science, 2017).)
